We go through eight compounds from article PMC3386561 (Toxicology in Vitro, 2011).

Values after ≈ are worked out from the molar mass of the structure shown. “Also recorded” adds a separate entry of the source. A value given as a limit tells only on which side of the number the result lay.

Series [1] has as its system liver. As to conditions: cited from earlier work; for Toxicity / liver damage in rats (in words): ref Patel et al., 2011.
The subject of series [2] is HepG2-CYP3A4 transfected cells. In words: Cell viability. The class given is cell-based. As to conditions: for Cytotoxicity (in words): 0-250 μM; for Concentration at which a significant decrease in cell viability begins: p < 0.05 vs 0 μM control.
The nature of series [3]: Cell viability. The class given is cell-based. As to conditions: human; for viability: % Cell Viability.
Series [4] can be described thus: Cell viability. In kind it is cell-based. As to conditions: human.
Series [5] is described as follows: Solubility in HBSS. The class given is physicochemical.
A short description of series [6]: DCPT hydrolysis in HBSS. In kind it is physicochemical. As to conditions: 250 μM in HBSS, 37 °C, after 24 hr.
Series [7] deals with HepG2 wild type cells. Put plainly: Cell viability. In kind it is cell-based. Particulars: 24 hr.
Series [8] has as its target T1, CYP3A4 (Homo sapiens, UniProt P08684).
Series [9] addresses T1, CYP3A4. In words: in vitro.
The target of series [10] is T1, CYP3A4. Put plainly: Testosterone 6β-hydroxylation in HepG2 wild type cells. Particulars: 0-250 μM testosterone, 1 hr.

T1 sequence (P08684 whole entry): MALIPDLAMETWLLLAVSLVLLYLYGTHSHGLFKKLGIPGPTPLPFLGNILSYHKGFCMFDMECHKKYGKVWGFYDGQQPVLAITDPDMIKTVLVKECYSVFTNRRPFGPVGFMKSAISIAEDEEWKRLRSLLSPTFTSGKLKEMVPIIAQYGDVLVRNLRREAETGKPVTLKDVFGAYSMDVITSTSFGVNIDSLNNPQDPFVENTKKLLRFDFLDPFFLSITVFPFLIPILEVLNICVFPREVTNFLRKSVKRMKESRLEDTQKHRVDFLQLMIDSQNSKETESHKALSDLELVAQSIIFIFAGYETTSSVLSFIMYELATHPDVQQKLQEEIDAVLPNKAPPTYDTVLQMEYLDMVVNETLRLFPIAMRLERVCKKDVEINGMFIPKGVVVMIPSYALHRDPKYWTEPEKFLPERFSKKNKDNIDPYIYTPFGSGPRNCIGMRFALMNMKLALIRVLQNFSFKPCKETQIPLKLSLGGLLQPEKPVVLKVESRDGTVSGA

With `O=C1SCCN1c1cc(Cl)cc(Cl)c1` [2-DCTD, (3,5-dichlorophenyl)-2-thiazolidinone], in [1], the “Toxicity / liver damage in rats (in words)” value (“Toxicity / liver damage” for short) is recorded as “neither compound produced liver damage”. The Cell viability amounted to 99.6 ± 4.6% in [2] (100 μM, 24 hr) and 37.3 ± 7.1% in series [2] (250 μM, 24 hr).

`O=C1CSCN1c1cc(Cl)cc(Cl)c1` [4-DCTD, 3-(3,5-dichlorophenyl)-4-thiazolidinone]: the “Toxicity / liver damage” value in series [1] is given as “neither compound produced liver damage”. The “Cytotoxicity (in words)” value in series [2] (24 hr) is on record as “not cytotoxic; also recorded: not toxic”. In addition, the CC50 at 24 h in series [3] (HepG2-CYP3A4 transfected cells) and in series [4] was > 250 µM throughout.

Regarding `O=C1CSC(=O)N1c1cc(Cl)cc(Cl)c1` [DCPT, 3-(3,5-dichlorophenyl)-2,4-thiazolidinedione], in series [1] (Fischer 344 rats, ref Kennedy et al., 2003, Patel et al., 2008), the “Hepatotoxicity in rats (in words)” value was “hepatotoxic”. In addition, the concentration in solution in series [5] (HBSS, aqueous buffer) (solubility) came to 250 µM (≈ 65.5 µg/mL). In addition, the DCPT remaining result in series [6] was “less than 50%”. In addition, the “Reduction of cell viability” value is listed as 80% in [2] (250 μM DCPT, 24 hr) and “approximately 60%” in [7] (highest concentration (250 μM) DCPT). In addition, the “Concentration at which a significant decrease in cell viability begins” value in [2] (24 hr) is 100 µM. Further, the “Decrease in cell viability” value in series [2] (DEX pretreatment followed by 100 μM DCPT, compared to controls) was “approximately 10%”. For the same compound, the viability worked out at 82.6 ± 2.8% in series [3] (100 μM DCPT alone, 24 hr); 73 ± 1% in series [3] (100 μM DEX pretreatment 24 hr, then 100 μM DCPT 24 hr); 21.3 ± 3.2% in series [3] (250 μM DCPT alone, 24 hr). In addition, the 50% cytotoxic concentration (CC50) at 24 h was 160 ± 5.9 µM in series [3] (HepG2-CYP3A4 transfected cells) and 233 ± 19.7 µM in series [4].

Regarding `O=C(O)CSC(=O)Nc1cc(Cl)cc(Cl)c1` [DCTA, S-(3,5-dichlorophenyl)aminocarbonyl thioglycolic acid], the “Toxicity / liver damage” value in series [1] is on record as “toxic”. In addition, in series [2] (24 hr), the “Concentration at which a significant decrease in cell viability begins” value was found to be 50 µM. Further, the CC50 at 24 h in [3] (HepG2-CYP3A4 transfected cells) came to 67.3 ± 8.1 µM; in series [4] it was 65.3 ± 3.9 µM.

`O=C=Nc1cc(Cl)cc(Cl)c1` [DPI, 3,5-dichlorophenyl isocyanate]: the “Concentration at which a significant decrease in cell viability begins” value in series [2] (24 hr) worked out at 100 µM; in [7] (p < 0.05 vs 0 μM control), 25 µM. For the same compound, the CC50 at 24 h in series [3] and in [4] was > 250 µM in each case. In addition, the viability at 24 h, 250 μM in [3] and in series [4] was ≥ 50% each time.

`CC1SC(=O)N(c2cc(Cl)cc(Cl)c2)C1=O` (centres unmarked) [DPMT, 3-(3,5-dichlorophenyl)-5-methyl-2,4-thiazolidinedione]: the “Toxicity / liver damage” value in series [1] was “hepatotoxic”. Moreover, in [5] (evident at 250 μM), the “Solubility in HBSS (in words)” value is “issues regarding the solubility”. Besides, the “Cytotoxicity (in words)” value in series [2] (24 hr) is “no observed decrease in viability; also recorded: non-toxic”. Also, the CC50 at 24 h in [3] (HepG2-CYP3A4 transfected cells) and in series [4] was > 250 µM throughout.

Regarding `CC(=O)N1CCN(c2ccc(OCC3COC(Cn4ccnc4)(c4ccc(Cl)cc4Cl)O3)cc2)CC1` (centres unmarked) [KCZ, ketoconazole, reference compound], in [3], the viability is 106 ± 4.5%.

Regarding `C[C@]12CC[C@H]3[C@@H](CCC4=CC(=O)CC[C@@]43C)[C@@H]1CC[C@@H]2O` [Testosterone], in series [8], the “Vmax of testosterone 6β-hydroxylation” value was 92.7 ± 13.3 pmol/min/mg protein. The Km in series [9] was determined as 81.1 ± 5.7 µM. In addition, the 6β-hydroxylation of testosterone entry in series [10] is on record as “no detectable”.

The CC50 is the concentration at which the toxic effect on the cells reaches its halfway point. Low readings indicate greater toxicity to the cells, high ones lower toxicity to the cells. What is called solubility is the dissolved amount per volume that the medium holds. Broadly, the viability is a read-out of living cells in per cent, often relative to untreated cells. A word on the Km: it is the concentration of substrate that gives half-maximal velocity.
